Structures are written as SMILES. Some results are limits rather than exact numbers.

One assay deals with T1, ER (Homo sapiens, UniProt P03372).
T1 construct: host or cells: T47D and MCF7 human breast cancer cells
T1 sequence (P03372 1-595): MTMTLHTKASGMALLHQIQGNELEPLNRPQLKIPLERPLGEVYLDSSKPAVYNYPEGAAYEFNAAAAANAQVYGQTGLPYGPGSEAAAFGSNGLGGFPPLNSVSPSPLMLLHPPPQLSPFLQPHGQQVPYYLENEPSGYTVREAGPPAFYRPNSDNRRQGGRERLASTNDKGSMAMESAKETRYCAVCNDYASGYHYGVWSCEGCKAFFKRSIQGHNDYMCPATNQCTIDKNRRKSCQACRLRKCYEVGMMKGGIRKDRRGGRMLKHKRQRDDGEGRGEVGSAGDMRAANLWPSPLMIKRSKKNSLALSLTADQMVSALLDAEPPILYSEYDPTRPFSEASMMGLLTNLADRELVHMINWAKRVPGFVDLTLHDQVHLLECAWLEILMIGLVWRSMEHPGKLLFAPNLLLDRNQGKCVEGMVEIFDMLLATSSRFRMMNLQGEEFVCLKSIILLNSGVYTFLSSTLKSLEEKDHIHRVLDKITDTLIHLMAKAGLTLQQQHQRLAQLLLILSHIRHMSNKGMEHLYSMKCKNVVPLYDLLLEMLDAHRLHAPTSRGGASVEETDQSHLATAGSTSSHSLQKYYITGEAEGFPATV
The assay is described as follows: ER degradation activity, in-cell western blot analysis in T47D cells. The format is cell-based. As to conditions: 16 hours, Table A does not say which cell line (T47D or MCF7), read-out: Potency (DC50). The protocol:
ER degradation activity was evaluated in the human breast cancer cell line T47D and MCF7 purchased from the American Type Culture Collection (ATCC), Manassas, VA, and maintained and cultured in Dulbecco's Modified Eagle's medium (DMEM) containing 10% fetal bovine serum, 1 unit/ml of penicillin and 1 μg/ml of streptomycin.
The protocol for the in-cell western blot analysis: a. seed cells in black-sided/clear bottom 96- or 384-well plates at 40,000 or 10,000 cells/well, overnight; b. add diluted compounds (final 0.5% DMSO), 16 hours. […] RT 2 h, gentle shaking. Negative control: cells plus secondary antibodies (no primary antibodies); e. wash ×4 with PBS+0.05-0.1% Tween 20, gentel shaking; f. anti-rabbit-680 and anti-mouse-800 (both 1:1000 in LiCor block+0.05% Tween20, RT 1 h, gentle shaking, no light. LI-COR: 0.2% to reduce background; g. wash×4 with PBS+0.05% Tween 20, gental shaking; h. add 100 μL or 25 μL of PBS to each well and read on CLX plate reader. The relative ER percentage in treated cells were obtained by comparing the values of treated wells to those in untreated and DMSO-treated wells as 100%.
One may read the DC50 as the midpoint of the concentration-degradation curve. For `O=C1CCC(N2Cc3cc4c(cc3C2=O)CN(C(=O)[C@H]2CC[C@@H](N3CC(Nc5ccc([C@@H]6c7ccc(O)cc7CC[C@@H]6c6ccccc6)cc5)C3)CC2)C4)C(=O)N1` (single isomer, unassigned) [E 361], the DC50 is more than 0.1 µM.

Turning to `C[C@@H]1Cc2c([nH]c3ccccc23)[C@@H](c2c(F)cc(N3CCC(C(=O)N4CCC(N5Cc6cc7c(cc6C5)C(=O)N(C5CCC(=O)NC5=O)C7=O)CC4)CC3)cc2F)N1CC(C)(F)F` (stereo partly drawn) [E 252, 6-(1-(1-(4-((1R,3R)-2-(2,2-difluoropropyl)-3-methyl-2,3,4,9-tetrahydro-1H-pyrido[3,4-b]indol-1-yl)-3,5-difluorophenyl)piperidine-4-carbonyl)piperidin-4-yl)-2-(2,6-dioxopiperidin-3-yl)-6,7-dihydropyrrolo[3,4-f]isoindole-1,3(2H,5H)-dione], the DC50 was less than 0.01 µM.

`O=C1CCC(N2Cc3cc4c(cc3C2=O)CN(C(=O)C2CCN(CC3CN(c5ccc([C@@H]6c7ccc(O)cc7CC[C@@H]6c6ccccc6)cc5)C3)CC2)C4)C(=O)N1` (stereo partly drawn) [E 296, 3-(6-(1-((1-(4-((1R,2S)-6-hydroxy-2-phenyl-1,2,3,4-tetrahydronaphthalen-1-yl)phenyl)azetidin-3-yl)methyl)piperidine-4-carbonyl)-1-oxo-3,5,6,7-tetrahydropyrrolo[3,4-f]isoindol-2(1H)-yl)piperidine-2,6-dione]: the DC50 is more than 0.1 µM.

Consider `O=C1CCC(N2C(=O)c3cc4c(cc3C2=O)CN(CC2CN(C(=O)C3CCN(c5ccc([C@@H]6c7ccc(O)cc7CC[C@@H]6c6ccccc6)cc5)CC3)C2)C4)C(=O)N1` (mixture of isomers) [E 16, Rac-2-(2,6-dioxopiperidin-3-yl)-6-((1-(1-(4-((1R,2S)-6-hydroxy-2-phenyl-1,2,3,4-tetrahydronaphthalen-1-yl)phenyl)piperidine-4-carbonyl)azetidin-3-yl)methyl)-6,7-dihydropyrrolo[3,4-f]isoindole-1,3(2H,5H)-dione], for which the DC50 was in the range of 0.01 to 0.1 µM.

With `C[C@@H]1Cc2cc(O)ccc2[C@@H](c2c(F)cc(N3CCC4(CCN(CC(=O)N5Cc6cc7c(cc6C5)C(=O)N(C5CCC(=O)NC5=O)C7=O)C4)C3)cc2F)N1CC(C)(F)F` (stereo partly drawn) [E 31, 6-(2-(7-(4-((1S,3R)-2-(2,2-difluoropropyl)-6-hydroxy-3-methyl-1,2,3,4-tetrahydroisoquinolin-1-yl)-3,5-difluorophenyl)-2,7-diazaspiro[4.4]nonan-2-yl)acetyl)-2-(2,6-dioxopiperidin-3-yl)-6,7-dihydropyrrolo[3,4-f]isoindole-1,3(2H,5H)-dione], the DC50 was more than 0.1 µM.

As to `C[C@@H]1Cc2c([nH]c3ccccc23)[C@@H](c2c(F)cc(N3CCC4(CC3)CN(CC3Cc5cc6c(cc5C3)C(=O)N(C3CCC(=O)NC3=O)C6=O)C4)cc2F)N1CC(F)F` (stereo partly drawn) [E 232, 6-((7-(4-((1R,3R)-2-(2,2-difluoroethyl)-3-methyl-2,3,4,9-tetrahydro-1H-pyrido[3,4-b]indol-1-yl)-3,5-difluorophenyl)-2,7-diazaspiro[3.5]nonan-2-yl)methyl)-2-(2,6-dioxopiperidin-3-yl)-6,7-dihydrocyclopenta[f]isoindole-1,3(2H,5H)-dione], the DC50 was more than 0.1 µM.

With `C[C@@H]1Cc2c([nH]c3ccccc23)[C@@H](c2c(F)cc(N3CCCC4(CN(C(=O)CN5Cc6cc7c(cc6C5)C(=O)N(C5CCC(=O)NC5=O)C7)C4)C3)cc2F)N1CC(F)F` (stereo partly drawn) [E 70, 3-(6-(2-(6-(4-((1R,3R)-2-(2,2-difluoroethyl)-3-methyl-2,3,4,9-tetrahydro-1H-pyrido[3,4-b]indol-1-yl)-3,5-difluorophenyl)-2,6-diazaspiro[3.5]nonan-2-yl)-2-oxoethyl)-1-oxo-3,5,6,7-tetrahydropyrrolo[3,4-f]isoindol-2(1H)-yl)piperidine-2,6-dione], the DC50 is 0.01 to 0.1 µM.

In the case of `O=C1CCC(N2C(=O)c3cc4c(cc3C2=O)CN(CC2(F)CN(C(=O)C3CCN(c5ccc([C@@H]6c7ccc(O)cc7CC[C@@H]6c6ccccc6)cc5)CC3)C2)C4)C(=O)N1` (stereo partly drawn) [E 207, 2-(2,6-dioxopiperidin-3-yl)-6-((3-fluoro-1-(1-(4-((1R,2S)-6-hydroxy-2-phenyl-1,2,3,4-tetrahydronaphthalen-1-yl)phenyl)piperidine-4-carbonyl)azetidin-3-yl)methyl)-6,7-dihydropyrrolo[3,4-f]isoindole-1,3(2H,5H)-dione], the half-maximal degradation concentration (DC50) is more than 0.1 µM.

As to `C[C@@H]1Cc2c([nH]c3ccccc23)[C@@H](c2c(F)cc(C3CCN(C[C@H]4CC[C@@H](N5Cc6cc7c(cc6C5)C(=O)N(C5CCC(=O)NC5=O)C7=O)CC4)CC3)cc2F)N1CC(F)F` (stereo partly drawn) [E 367, 6-((1S,4s)-4-((4-(4-((1R,3R)-2-(2,2-difluoroethyl)-3-methyl-2,3,4,9-tetrahydro-1H-pyrido[3,4-b]indol-1-yl)-3,5-difluorophenyl)piperidin-1-yl)methyl)cyclohexyl)-2-(2,6-dioxopiperidin-3-yl)-6,7-dihydropyrrolo[3,4-f]isoindole-1,3(2H,5H)-dione], the DC50 was more than 0.1 µM.

Consider `O=C1CCC(N2C(=O)c3cc4c(cc3C2=O)CN([C@H]2CC[C@@H](NC3CCN(c5ccc([C@@H]6c7ccc(O)cc7CC[C@@H]6c6ccccc6)cc5)CC3)CC2)C4)C(=O)N1` (stereo partly drawn) [E334, 2-(2,6-dioxopiperidin-3-yl)-6-((1S,4s)-4-((1-(4-((1R,2S)-6-hydroxy-2-phenyl-1,2,3,4-tetrahydronaphthalen-1-yl)phenyl)piperidin-4-yl)amino)cyclohexyl)-6,7-dihydropyrrolo[3,4-f]isoindole-1,3(2H,5H)-dione], for which the DC50 is more than 0.1 µM.

Turning to `C[C@@H]1Cc2c([nH]c3ccccc23)[C@@H](c2c(F)cc(-c3ccc(CN4CCC(N5Cc6cc7c(cc6C5)C(=O)N(C5CCC(=O)NC5=O)C7=O)CC4)nc3)cc2F)N1CC(F)F` (stereo partly drawn) [E326, 6-(1-((5-(4-((1R,3R)-2-(2,2-difluoroethyl)-3-methyl-2,3,4,9-tetrahydro-1H-pyrido[3,4-b]indol-1-yl)-3,5-difluorophenyl)pyridin-2-yl)methyl)piperidin-4-yl)-2-(2,6-dioxopiperidin-3-yl)-6,7-dihydropyrrolo[3,4-f]isoindole-1,3(2H,5H)-dione], the DC50 was more than 0.1 µM.

With `O=C1CCC(N2C(=O)c3cc4c(cc3C2=O)CN(C2CCN(CC3CCN(c5ccc([C@@H]6c7ccc(O)cc7CC[C@@H]6c6ccccc6)cc5)CC3)CC2)C4)C(=O)N1` (stereo partly drawn) [E 271, 2-(2,6-dioxopiperidin-3-yl)-6-(1-((1-(4-((1R,2S)-6-hydroxy-2-phenyl-1,2,3,4-tetrahydronaphthalen-1-yl)phenyl)piperidin-4-yl)methyl)piperidin-4-yl)-6,7-dihydropyrrolo[3,4-f]isoindole-1,3(2H,5H)-dione], the DC50 was less than 0.01 µM.

The same assay, now with this note: compounds 16 hours, Table A does not say whether T47D or MCF7, read-out: Potency (DC50).
As to `C[C@@H]1Cc2c([nH]c3ccccc23)[C@@H](c2ncc(C3=CCC(C(=O)N4CCC(N5Cc6cc7c(cc6C5)C(=O)N(C5CCC(=O)NC5=O)C7=O)CC4)CC3)cc2F)N1CC(C)(F)F` (stereo partly drawn) [E 483, 6-(1-(4-(6-((1S,3R)-2-(2,2-difluoropropyl)-3-methyl-2,3,4,9-tetrahydro-1H-pyrido[3,4-b]indol-1-yl)-5-fluoropyridin-3-yl)cyclohex-3-ene-1-carbonyl)piperidin-4-yl)-2-(2,6-dioxopiperidin-3-yl)-6,7-dihydropyrrolo[3,4-f]isoindole-1,3(2H,5H)-dione], the 50% degradation concentration (DC50) is more than 0.1 µM.

Turning to `COc1nc(C2CCC(C(=O)N3CCC(N4Cc5cc6c(cc5C4)C(=O)N(C4CCC(=O)NC4=O)C6=O)CC3)CC2)ccc1[C@@H]1c2[nH]c3ccccc3c2C[C@@H](C)N1CC(F)F` (stereo partly drawn) [E 402, 6-(1-(4-(5-((1R,3R)-2-(2,2-difluoroethyl)-3-methyl-2,3,4,9-tetrahydro-1H-pyrido[3,4-b]indol-1-yl)-6-methoxypyridin-2-yl)cyclohexane-1-carbonyl)piperidin-4-yl)-2-(2,6-dioxopiperidin-3-yl)-6,7-dihydropyrrolo[3,4-f]isoindole-1,3(2H,5H)-dione], the DC50 was more than 0.1 µM.

Take `COc1c2c(cc3c1CN(C1CCC(=O)NC1=O)C3=O)CN(CC(=O)N1CC3(CCN(c4cc(F)c([C@@H]5c6ccc7[nH]ncc7c6C[C@@H](C)N5CC(F)F)c(F)c4)CC3)C1)C2` (stereo partly drawn) [E 441]: the DC50 was less than 0.01 µM.
